target: DNA gyrase (Escherichia coli, UniProt P0AES4+P0AES6); assay: Fluorescence Polarisation Assay: In a black, 384-well polystyrene assay plate, 30 microliters/well of 5 nM Escherichia coli DNA gyrase A/B tetramer and 130 micrograms/ml of topologically relaxed plasmid containing the triplex-forming sequence […] in an assay buffer consisting of 35 mM Tris-HCl (pH 7.5), 24 mM KCl, 4 mM MgCl2, 2 mM dithiothreitol, 1.8 mM spermidine, 5% (v/v) glycerol, 200 nM bovine serum albumin, 0.8% dimethylsulfoxide, and 0.3 mM ATP may be incubated at ambient temperature for (typically 30 minutes) in the absence or presence of 5-10 different concentrations of test compound. The supercoiling reactions may be quenched by the addition of 10 microliters/well of 40 nM oligodeoxynucleotide probe in 3x triplex-forming buffer consisting of 150 mM NaCl, and 150 mM sodium acetate at pH 3.5. The oligodeoxynucleotide probe may be 5x-BODIPY-FL-labeled […]. After 60 minutes, the fluorescence anisotropy of the BODIPY-FL may be measured in a Tecan Ultra plate reader, using 485 nM.; format: protein-complex assay

SMILES	IC50 [µM]
C[C@@H]1CN2c3c(cc4c(Cl)noc4c3F)CC3(C(=O)NC(=O)NC3=O)[C@H]2[C@H](C)O1	0.2
Cc1noc2c(Cl)c3c(nc12)CC1(C(=O)NC(=O)NC1=O)[C@H]1[C@H](C)O[C@H](C)CN31 (relative stereo)	1.8
C[C@@H]1CN2c3c(cc4c(C(N)=O)noc4c3F)CC3(C(=O)NC(=O)NC3=O)[C@H]2[C@H](C)O1 (relative stereo)	1.7

From ChEMBL document CHEMBL3638965, “Chemical compounds 542” (2015)
